Assay results from patent US11357774B2, “Use of a quinoline sulfonyl compound for treatment of inflammation, inflammatory disorders, autoimmune disorders and malaria” (priority 2019, dated 2022).

Legend:
[1] = tested on: BALB/c mice with ALI caused by LPS; test: LPS-induced acute lung injury in mice, bronchoalveolar fluid cell counts and TNF-α; format: in vivo, mouse; conditions: 24 hours, VR23 30 mg/kg intraperitoneally
Text: The enzyme-linked immunosorbent assay (ELISA) is a quantitative measurement based on sandwich-based enzyme linking, using a protein-specific capture antibody to determine the levels of single or multiple chemokines and cytokines.
Six to eight week old female BALB/c mice strain 028 (Charles River Laboratories, QC, Canada) were fed regularly with laboratory chow and water upon arrival at the Laurentian University Animal Care Facility (Sudbury, ON, Canada). To determine a useful dose of LPS, three mice per group were treated for 24 hours with the following three different conditions: (i) no LPS, (ii) 0.25 mg of LPS per kg of body weight, and (iii) 0.50 mg of LPS per kg of body weight. […] After the animals were sacrificed, the bronchoalveolar lavage fluid (BALF) of each mouse was collected and analyzed for LPS-induced inflammatory responses. […] Bronchoalveolar lavage fluid was collected and the number of cells infiltrated into the bronchoalveolar fluid were counted (FIG. 2). […]
Toward this goal, a useful LPS dose to induce TNF-α in the mouse bronchoalveolar fluid was first obtained. […] To illustrate the anti-inflammatory property of VR23, the level of TNF-α in the BALF was measured at 24-hour post-treatment. […] The levels of TNF-α were determined at 24-hour post-LPS stimulation (0.4 mg/kg), in the absence (controls) or presence of DEX (4 mg/kg) or VR23 (30 mg/kg).

[2] = tested on: human fibroblast-like synoviocytes from rheumatoid arthritis patients (HFLS-RA); test: Viability test, HFLS-RA cells; format: cell-based; conditions: 6 hours, IL-1β 10 ng/mL, VR23 1.25-5.0 μM, HCQ 7.5-30 μM
Procedure: The values presented are the mean±SEM (n=3).
The CCK-8 assay was used to count viable cells under the various treatment conditions. Briefly, cells were cultured in 11 columns of a 96-well clustered plate, with 5,000 cells in 100 μL of culture medium per well, excluding one column for a media-only control. The plate was incubated overnight at 37° C. in the humidified conditions, followed by treatment with test compounds diluted in the culture medium (10 μL). Each column was treated with a different condition so that each treatment could have 8 repeats. […] The absorbance was measured using an automatic plate reader (Synergy H4 Hybrid Multi-Mode Microplate Reader, BioTek, Montreal, Canada) at 450 nm wavelength. The cell viability of each treatment sample was determined by using the following equation (%)=(Abstrtmt-Absmedia)/(AbsuT-Absmedia)*100, where Abstrtmt is the absorbance value of cells with the various treatment conditions; Absmedia is the absorbance of the well containing media only; AbsuT is the absorbance of the wells with untreated cells.
This finding was extended to human cells relevant to autoimmune diseases. […] Cytokine levels in cell culture supernatants were determined by a single-analyte ELISA. […] The cytokine secretion was measured in cell culture supernatants by a single-analyte ELISA.

[3] = tested on: HFLS-RA cell migration; test: Cell migration assay (matrigel invasion chamber), HFLS-RA; format: cell-based, human; conditions: 24 hours, 5 μM or 10 μM
Procedure: The values presented are the mean±SEM (n=2).
Cell migration assays were performed with Corning invasion chambers with Matrigel matrix (Fisher Scientific). The lower chamber contained compounds (e.g., VR23 or HCQ) and FBS as a chemo-attractant. The upper chamber was loaded with cells in FBS-free medium. The analysis of the trans-well inserts were carried out as described previously^24. After 24 hours of incubation, the trans-well inserts were removed, and then the remaining media and cells on the upper chamber were also removed from the top of the membrane with a cotton swab. The trans-well inserts were placed into wells containing 1 mL of 70% ethanol for 10 minutes to fix the cells. The residual ethanol was carefully removed with a cotton swab. Cells on the trans-well insert membrane were then air-dried at room temperature for 15 minutes. The trans-well insert containing cells were placed in 1 mL of 0.2% crystal violet for 10 minutes to stain. The excessive crystal violet was carefully removed from the membrane with a cotton swab. Subsequently, cells on the trans-well membrane were air-dried at room temperature prior to analysis under an inverted microscope. Images (10×) were captured at 5 different fields. The average number of cells that migrated through the membrane towards the chemo-attractant were determined. […]

With O=[N+]([O-])c1ccc(S(=O)(=O)N2CCN(c3ccnc4cc(Cl)ccc34)CC2)c([N+](=O)[O-])c1 [VR23, 7-chloro-4-(4-(2,4-dinitrophenylsulfonyl)piperazin-1-yl)quinoline] the “total number of cells recruited into the bronchoalveolar space” value ([1]; LPS 0.4 mg/kg intranasally) was “completely prevented”, the “level of TNF-α in bronchoalveolar lavage fluid” value ([1]; LPS 0.4 mg/kg) was “effectively reduces the level of TNF-α” and the cell viability [2] was “none of the conditions examined significantly affected the viability”. For the same compound, the “cell migration promoted by 10% FBS” value [3] was “completely prevents cell migration”.
